Test results as given in ChEMBL document CHEMBL1201862, “PubChem BioAssay data set” (2004).
Each block holds one compound with its values, some of them ahead of it. Activity calls are given as the source filed them.

What was measured:
[1] = molecular target: Melanin-concentrating hormone receptor 1 (Homo sapiens, UniProt Q99705); experiment: Late-stage fluorescence-based counterscreen for antagonists of the G-protein coupled receptor 7 (GPR7): cell-based dose response assay to identify antagonists of the melanin-concentrating hormone receptor 1 (MCHR1) Set 5.; type: functional
[2] = molecular target: T1, Neuropeptides B/W receptor type 1 (Homo sapiens, UniProt P48145); experiment: GPR7 antagonist potency, late-stage follow-up, cell-based, fluorescence, dose response, set 5 (AID 588566); type: functional
T1 sequence (P48145 whole entry): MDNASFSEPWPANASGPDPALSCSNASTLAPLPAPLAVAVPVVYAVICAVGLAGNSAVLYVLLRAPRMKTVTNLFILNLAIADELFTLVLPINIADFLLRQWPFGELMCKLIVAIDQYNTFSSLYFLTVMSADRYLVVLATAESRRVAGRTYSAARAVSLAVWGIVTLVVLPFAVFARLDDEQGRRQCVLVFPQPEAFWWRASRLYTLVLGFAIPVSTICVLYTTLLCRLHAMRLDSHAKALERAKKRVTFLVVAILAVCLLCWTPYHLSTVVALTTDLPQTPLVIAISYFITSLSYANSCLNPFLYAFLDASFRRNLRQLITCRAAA

[3] = molecular target: T2, High affinity choline transporter 1 (Homo sapiens, UniProt Q9GZV3); experiment: CHT inhibitors, dose response, cell-based, 10-point CRC, membrane potential dye (AID 588401); type: functional;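 note: membrane potential dye fluorescence of choline-evoked depolarization via CHT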
T2 sequence (Q9GZV3 whole entry): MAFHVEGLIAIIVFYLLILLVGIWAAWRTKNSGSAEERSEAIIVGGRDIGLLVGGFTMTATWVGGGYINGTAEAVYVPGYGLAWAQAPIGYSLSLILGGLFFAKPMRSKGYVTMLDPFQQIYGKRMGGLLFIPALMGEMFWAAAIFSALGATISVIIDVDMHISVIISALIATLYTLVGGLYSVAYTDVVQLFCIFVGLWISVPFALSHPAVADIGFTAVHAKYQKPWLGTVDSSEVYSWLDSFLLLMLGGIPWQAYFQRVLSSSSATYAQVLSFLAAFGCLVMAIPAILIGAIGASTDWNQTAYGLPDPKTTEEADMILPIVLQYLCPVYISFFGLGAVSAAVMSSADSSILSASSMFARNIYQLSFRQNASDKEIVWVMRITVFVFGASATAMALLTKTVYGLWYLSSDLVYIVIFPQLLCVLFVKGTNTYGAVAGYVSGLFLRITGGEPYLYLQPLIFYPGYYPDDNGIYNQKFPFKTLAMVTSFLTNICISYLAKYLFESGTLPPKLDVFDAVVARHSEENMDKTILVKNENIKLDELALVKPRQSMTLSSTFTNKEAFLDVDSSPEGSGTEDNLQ

[4] = molecular target: T2, High affinity choline transporter 1; experiment: CHT inhibitors, dose response, cell-based, 5-point CRC, membrane potential dye (AID 504840); type: functional
[5] = molecular target: DNA dC->dU-editing enzyme APOBEC-3A (Homo sapiens, UniProt P31941); experiment: SAR analysis of small molecule inhibitors of APOBEC3A DNA Deaminase via a fluorescence-based single-stranded DNA deaminase assay.; type: functional; conditions: read-out: IC50_Mean
[6] = molecular target: DNA dC->dU-editing enzyme APOBEC-3G (Homo sapiens, UniProt Q9HC16); experiment: APOBEC3G deaminase inhibitors, SAR follow-up, biochemical, fluorescence, single-stranded DNA substrate (AID 602136); type: functional; conditions: read-out: IC50_Mean
[7] = molecular target: Ras and Rab interactor 1/Tyrosine-protein kinase ABL1 (Homo sapiens, UniProt P00519+Q13671); type: functional;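 note: biochemical TR-FRET dose-response test measuring inhibition of binding between Rin1 and Abl proteins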
Galanin receptor type 3 = molecular target: T3, Galanin receptor type 3 (Homo sapiens, UniProt O60755); experiment: Fluorescence-based cell-based primary high throughput dose response assay to identify antagonists of the Galanin Receptor 3 (GalR3).; type: functional
T3 sequence (O60755 whole entry): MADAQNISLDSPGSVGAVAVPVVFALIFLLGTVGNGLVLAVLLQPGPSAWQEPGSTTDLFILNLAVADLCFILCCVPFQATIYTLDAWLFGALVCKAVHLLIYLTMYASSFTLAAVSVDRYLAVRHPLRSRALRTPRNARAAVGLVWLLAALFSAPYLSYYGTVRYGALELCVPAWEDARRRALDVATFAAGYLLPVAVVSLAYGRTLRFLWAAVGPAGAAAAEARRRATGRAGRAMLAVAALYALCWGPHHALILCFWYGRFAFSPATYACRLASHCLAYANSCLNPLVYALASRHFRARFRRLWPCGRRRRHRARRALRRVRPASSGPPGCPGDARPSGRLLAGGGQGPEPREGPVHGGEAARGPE

cells = type: functional, cell-based; conditions: HEK-CNG
[8] = molecular target: Heat shock protein HSP 90-alpha (Homo sapiens, UniProt P07900); type: functional, organism-based
CHO = experiment: cytotoxicity in TLR9-MyD88 CHO cells, dose response, cytotoxicity control for TLR9-MyD88 binding inhibitor project, cell-based, luminescence (AID 588339); type: functional, hamster; conditions: Cricetulus griseus;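 note: CHO cells stably coexpressing TLR9 and MyD88 fusions from primary screen; compound exposure lasted 48 hours before viability readout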
Beta Lactamase = Beta Lactamase (Pseudomonas aeruginosa, UniProt Q932Y6); experiment: beta-lactamase reporter inhibitor potency, dose response, artefact control for TLR9-MyD88 binding inhibitor project, BLA reporter cells, FRET fluorescence (AID 588341); type: cell-based;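 note: cell based assay in CHO-K1 cells stably expressing beta-lactamase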
[9] = test system: Streptococcus sp. 'group A'; experiment: growth inhibition of control SK(-) GAS strain, dose response, counter-screen for streptokinase expression inhibitor project, luminescence, kanamycin, BacTiterGlo, confirmation (AID 1900); type: functional, organism-based
[10] = cytotoxicity toward NIH3T3 fibroblasts, dose response, counter-screen, cell-based, ATP luminescence, mouse fibroblasts (AID 2010); type: functional;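 note: cells exposed to compound for about 90 hours before reading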
[11] = inhibitors of intracellular T. cruzi replication, confirmation, NIH3T3 host cells, beta-gal luminescence (AID 2044); type: functional, cell-based;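 note: intracellular parasites grown in NIH/3T3 mouse fibroblasts as host cells; luminescent beta-galactosidase reporter signal from transgenic T. cruzi replicating inside host cells; inhibitors lower the luminescence signal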
[12] = Luminescence Cell-Based Dose Retest to Confirm Inhibitors of Cancer Stem Cells. [Related pubchem assays (depositor defined):AID2717, AID2721]; type: functional; conditions: Homo sapiens
Streptococcus = experiment: Group A Streptococcus viability loss, dose response, counter-screen for streptokinase expression inhibitor project, luminescence, BacTiterGlo (AID 1915); type: functional, organism-based;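 note: potency for reduction of bacterial viability or growth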
[13] = molecular target: T4, Apoptotic protease-activating factor 1 (Homo sapiens, UniProt O14727); experiment: SAR analysis of small molecule Activators of Apaf-1 in a Fluorescent assay.; type: functional; conditions: read-out: EC50_Mean;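 note: caspase-3 cleavage of fluorogenic Rh110 DEVD substrate downstream of apoptosome activation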
T4 sequence (O14727 whole entry): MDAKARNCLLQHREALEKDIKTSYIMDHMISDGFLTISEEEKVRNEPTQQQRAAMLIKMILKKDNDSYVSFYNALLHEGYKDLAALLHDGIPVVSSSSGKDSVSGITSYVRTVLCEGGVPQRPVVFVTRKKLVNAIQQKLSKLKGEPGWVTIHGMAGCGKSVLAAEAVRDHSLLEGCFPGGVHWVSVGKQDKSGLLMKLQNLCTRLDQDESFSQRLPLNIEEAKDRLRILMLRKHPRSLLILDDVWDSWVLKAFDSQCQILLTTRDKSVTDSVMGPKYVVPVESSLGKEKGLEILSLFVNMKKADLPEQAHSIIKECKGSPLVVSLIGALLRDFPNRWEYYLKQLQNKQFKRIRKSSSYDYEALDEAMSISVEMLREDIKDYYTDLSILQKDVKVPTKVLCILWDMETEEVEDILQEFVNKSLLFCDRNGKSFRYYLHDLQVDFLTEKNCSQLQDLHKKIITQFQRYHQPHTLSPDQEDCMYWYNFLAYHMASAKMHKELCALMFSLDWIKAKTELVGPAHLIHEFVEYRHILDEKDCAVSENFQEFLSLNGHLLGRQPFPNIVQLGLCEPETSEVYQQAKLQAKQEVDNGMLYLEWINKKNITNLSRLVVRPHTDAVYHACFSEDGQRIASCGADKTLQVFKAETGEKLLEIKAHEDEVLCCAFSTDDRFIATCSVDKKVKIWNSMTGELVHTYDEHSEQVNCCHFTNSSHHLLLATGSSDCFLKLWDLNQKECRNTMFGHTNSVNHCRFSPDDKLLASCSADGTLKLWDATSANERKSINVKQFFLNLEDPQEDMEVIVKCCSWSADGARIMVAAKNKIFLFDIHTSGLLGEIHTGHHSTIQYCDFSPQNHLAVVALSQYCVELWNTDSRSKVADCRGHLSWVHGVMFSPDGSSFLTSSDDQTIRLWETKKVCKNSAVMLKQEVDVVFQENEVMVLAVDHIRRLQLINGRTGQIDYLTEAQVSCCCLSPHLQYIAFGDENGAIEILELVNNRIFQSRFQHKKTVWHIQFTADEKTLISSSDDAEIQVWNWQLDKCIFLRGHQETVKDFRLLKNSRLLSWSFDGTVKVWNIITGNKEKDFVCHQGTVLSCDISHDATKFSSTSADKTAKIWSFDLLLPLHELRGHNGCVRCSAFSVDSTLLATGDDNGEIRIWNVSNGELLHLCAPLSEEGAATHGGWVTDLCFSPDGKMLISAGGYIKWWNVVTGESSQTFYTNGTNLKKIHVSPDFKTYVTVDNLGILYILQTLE

[14] = molecular target: Protein disulfide-isomerase (Homo sapiens, UniProt P07237); experiment: PDI inhibitors, insulin aggregation turbidity, dose response, biochemical, absorbance, cherry-picked samples (AID 602350); type: functional
[15] = molecular target: T5, Short transient receptor potential channel 4 (Mus musculus, UniProt Q9QUQ5); experiment: mouse TRPC4 channel activators, dose response, cell-based, HEK293 TRPC4/mu-opioid, Fluo-4 calcium (AID 434937); type: functional
T5 sequence (Q9QUQ5 whole entry): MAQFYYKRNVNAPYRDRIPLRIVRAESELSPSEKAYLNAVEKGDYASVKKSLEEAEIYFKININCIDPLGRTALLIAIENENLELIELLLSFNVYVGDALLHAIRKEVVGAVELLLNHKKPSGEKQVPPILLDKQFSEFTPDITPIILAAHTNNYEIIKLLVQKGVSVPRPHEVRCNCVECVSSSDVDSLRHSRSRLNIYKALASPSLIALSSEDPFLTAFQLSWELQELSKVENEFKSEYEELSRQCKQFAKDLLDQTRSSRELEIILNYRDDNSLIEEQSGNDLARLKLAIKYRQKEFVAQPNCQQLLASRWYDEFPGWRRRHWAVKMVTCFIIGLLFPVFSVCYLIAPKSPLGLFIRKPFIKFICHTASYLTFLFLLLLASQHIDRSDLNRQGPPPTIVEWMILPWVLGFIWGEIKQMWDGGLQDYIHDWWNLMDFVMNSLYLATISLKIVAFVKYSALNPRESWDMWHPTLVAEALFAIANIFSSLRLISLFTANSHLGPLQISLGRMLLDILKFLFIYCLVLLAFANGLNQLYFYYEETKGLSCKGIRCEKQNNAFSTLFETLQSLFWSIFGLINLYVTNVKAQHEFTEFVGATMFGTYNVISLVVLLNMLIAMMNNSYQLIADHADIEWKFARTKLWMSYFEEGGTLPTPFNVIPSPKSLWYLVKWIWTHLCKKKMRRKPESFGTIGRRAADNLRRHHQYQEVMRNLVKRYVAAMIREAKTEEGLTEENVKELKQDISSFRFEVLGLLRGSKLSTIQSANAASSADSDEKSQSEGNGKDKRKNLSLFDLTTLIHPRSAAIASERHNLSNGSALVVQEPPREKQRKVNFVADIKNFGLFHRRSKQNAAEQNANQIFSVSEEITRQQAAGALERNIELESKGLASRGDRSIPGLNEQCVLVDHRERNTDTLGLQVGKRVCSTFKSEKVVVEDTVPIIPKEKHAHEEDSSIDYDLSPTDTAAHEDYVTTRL

Sequence of DNA dC->dU-editing enzyme APOBEC-3G (Q9HC16 whole entry): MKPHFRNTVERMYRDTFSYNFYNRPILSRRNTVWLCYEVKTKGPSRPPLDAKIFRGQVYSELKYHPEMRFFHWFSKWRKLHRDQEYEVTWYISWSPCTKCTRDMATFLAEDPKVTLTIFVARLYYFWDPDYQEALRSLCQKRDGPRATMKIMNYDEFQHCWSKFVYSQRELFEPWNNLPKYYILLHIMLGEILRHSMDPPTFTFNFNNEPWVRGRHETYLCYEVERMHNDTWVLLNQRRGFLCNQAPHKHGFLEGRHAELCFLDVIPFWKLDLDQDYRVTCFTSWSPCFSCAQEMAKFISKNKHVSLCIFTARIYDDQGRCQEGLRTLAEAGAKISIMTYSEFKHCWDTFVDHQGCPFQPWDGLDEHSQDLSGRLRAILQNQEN
Sequence of DNA dC->dU-editing enzyme APOBEC-3A (P31941 whole entry): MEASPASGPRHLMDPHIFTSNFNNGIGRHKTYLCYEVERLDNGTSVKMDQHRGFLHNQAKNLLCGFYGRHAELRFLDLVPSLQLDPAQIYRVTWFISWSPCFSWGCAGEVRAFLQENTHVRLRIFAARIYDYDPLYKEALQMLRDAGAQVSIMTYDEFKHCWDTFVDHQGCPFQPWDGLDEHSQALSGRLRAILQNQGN
Sequence of Melanin-concentrating hormone receptor 1 (Q99705 whole entry): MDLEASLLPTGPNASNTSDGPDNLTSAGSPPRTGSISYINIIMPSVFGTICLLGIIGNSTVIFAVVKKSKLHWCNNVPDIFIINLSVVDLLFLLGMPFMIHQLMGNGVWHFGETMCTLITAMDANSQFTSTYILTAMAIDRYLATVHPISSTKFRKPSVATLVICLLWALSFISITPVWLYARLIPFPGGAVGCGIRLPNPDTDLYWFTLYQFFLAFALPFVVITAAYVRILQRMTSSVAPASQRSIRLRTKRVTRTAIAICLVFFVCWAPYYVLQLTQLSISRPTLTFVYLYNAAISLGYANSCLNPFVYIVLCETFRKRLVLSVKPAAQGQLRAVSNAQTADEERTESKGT
Sequence of Ras and Rab interactor 1/Tyrosine-protein kinase ABL1 (P00519 whole entry): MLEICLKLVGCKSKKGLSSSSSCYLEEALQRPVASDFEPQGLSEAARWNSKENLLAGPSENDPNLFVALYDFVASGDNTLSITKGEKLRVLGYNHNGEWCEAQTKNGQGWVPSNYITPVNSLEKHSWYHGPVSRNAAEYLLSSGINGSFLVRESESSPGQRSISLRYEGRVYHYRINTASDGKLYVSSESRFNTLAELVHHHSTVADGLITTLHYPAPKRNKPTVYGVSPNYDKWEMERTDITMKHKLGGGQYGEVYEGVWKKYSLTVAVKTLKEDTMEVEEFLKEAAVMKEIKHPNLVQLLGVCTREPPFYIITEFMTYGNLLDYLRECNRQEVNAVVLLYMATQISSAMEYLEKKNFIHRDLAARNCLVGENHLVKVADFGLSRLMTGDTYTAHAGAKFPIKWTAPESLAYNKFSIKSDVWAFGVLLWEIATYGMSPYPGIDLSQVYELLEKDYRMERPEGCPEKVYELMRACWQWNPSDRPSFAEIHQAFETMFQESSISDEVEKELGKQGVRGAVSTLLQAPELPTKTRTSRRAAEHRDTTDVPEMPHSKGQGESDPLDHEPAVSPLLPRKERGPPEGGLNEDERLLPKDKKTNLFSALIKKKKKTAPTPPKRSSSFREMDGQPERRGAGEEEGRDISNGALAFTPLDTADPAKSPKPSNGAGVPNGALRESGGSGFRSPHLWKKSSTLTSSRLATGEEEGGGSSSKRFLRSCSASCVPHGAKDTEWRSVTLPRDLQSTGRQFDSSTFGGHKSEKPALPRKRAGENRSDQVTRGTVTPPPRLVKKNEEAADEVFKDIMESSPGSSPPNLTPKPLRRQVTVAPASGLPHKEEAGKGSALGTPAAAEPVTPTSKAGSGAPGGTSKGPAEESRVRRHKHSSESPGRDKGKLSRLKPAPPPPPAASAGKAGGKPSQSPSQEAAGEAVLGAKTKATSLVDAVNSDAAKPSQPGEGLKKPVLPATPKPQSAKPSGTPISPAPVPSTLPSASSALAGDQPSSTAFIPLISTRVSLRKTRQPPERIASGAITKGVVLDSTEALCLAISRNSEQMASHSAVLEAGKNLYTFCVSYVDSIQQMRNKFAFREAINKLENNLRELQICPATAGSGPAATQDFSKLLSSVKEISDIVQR
Sequence of Ras and Rab interactor 1/Tyrosine-protein kinase ABL1 (Q13671 whole entry): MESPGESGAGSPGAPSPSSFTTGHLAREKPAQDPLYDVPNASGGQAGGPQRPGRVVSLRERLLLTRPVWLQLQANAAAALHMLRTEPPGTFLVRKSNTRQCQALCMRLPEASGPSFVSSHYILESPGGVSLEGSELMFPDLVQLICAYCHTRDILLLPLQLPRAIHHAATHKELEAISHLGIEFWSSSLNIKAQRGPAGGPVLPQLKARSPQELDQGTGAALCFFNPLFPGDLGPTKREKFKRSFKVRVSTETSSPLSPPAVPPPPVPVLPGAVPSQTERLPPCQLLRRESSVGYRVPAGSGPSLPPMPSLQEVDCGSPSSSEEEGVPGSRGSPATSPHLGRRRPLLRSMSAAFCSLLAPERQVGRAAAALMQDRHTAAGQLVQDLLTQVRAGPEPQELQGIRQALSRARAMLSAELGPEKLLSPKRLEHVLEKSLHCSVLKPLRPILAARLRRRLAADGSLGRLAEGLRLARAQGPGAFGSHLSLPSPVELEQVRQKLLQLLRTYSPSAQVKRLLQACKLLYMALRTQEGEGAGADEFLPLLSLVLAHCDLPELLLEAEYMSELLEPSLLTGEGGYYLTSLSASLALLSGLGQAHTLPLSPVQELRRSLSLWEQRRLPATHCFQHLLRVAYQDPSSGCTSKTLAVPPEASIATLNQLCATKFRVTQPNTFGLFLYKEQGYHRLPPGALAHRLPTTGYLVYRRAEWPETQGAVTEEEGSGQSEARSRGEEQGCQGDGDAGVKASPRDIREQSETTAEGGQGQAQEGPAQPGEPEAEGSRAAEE
Sequence of Protein disulfide-isomerase (P07237 whole entry): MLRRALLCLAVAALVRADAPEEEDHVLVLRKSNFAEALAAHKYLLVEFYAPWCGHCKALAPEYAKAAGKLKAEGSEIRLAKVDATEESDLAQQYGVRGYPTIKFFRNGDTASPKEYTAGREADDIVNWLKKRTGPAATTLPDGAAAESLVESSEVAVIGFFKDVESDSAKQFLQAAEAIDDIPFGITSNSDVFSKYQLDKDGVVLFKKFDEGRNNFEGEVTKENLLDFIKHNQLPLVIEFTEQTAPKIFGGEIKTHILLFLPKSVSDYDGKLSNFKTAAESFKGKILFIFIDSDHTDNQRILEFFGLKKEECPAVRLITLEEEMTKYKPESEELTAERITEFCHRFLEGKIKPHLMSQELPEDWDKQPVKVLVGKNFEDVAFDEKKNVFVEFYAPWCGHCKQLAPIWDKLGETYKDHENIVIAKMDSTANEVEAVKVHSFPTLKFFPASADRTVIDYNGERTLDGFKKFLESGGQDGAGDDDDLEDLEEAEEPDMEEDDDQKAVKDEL
Sequence of Beta Lactamase (Q932Y6 whole entry): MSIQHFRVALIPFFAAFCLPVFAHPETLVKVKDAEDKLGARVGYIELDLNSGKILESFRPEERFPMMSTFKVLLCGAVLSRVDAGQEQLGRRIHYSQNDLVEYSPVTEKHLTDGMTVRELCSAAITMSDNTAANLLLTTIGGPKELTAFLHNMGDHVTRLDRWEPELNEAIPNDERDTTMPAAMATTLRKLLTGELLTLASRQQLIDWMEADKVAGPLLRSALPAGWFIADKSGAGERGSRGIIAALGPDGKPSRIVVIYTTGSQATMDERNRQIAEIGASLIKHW

Compound: Cc1nc(Cc2nnc(SCC(=O)c3cc(C)n(Cc4ccccc4)c3C)o2)cs1
IC50 [5]: > 99 µM (inactive)
IC50 [6]: > 99 µM (inactive)

Compound: COc1ccc(C2=NN(c3nc(C(=O)O)cs3)C(O)(C(F)(F)F)C2)c(OC)c1 (stereo unspecified)
IC50 (Galanin receptor type 3): 10 µM (inactive)
IC50 [3]: 4.74 µM (active)
EC50 (cells): > 29.9 µM (inactive)
IC50 [4]: 7.18 µM (active)

Compound: O=[N+]([O-])c1ccc(N2N=C(c3ccccc3)CC2c2ccccc2O)cc1 (stereo unspecified)
AC50 [8]: 3.31 µM (active)
IC50 (CHO): 28.5 µM (inactive)
IC50 (Beta Lactamase): 4.58 µM (active)
EC50 [9]: 2.31 µM (active)
EC50 [10]: > 60 µM (not active)
EC50 [11]: 1.45 µM (active)
AC50 [12]: 2.65 µM (active)
EC50 (Streptococcus): 3.46 µM (active)

Compound: O=C(O)CC(CCc1ccccc1)NC(=O)c1ccco1 (stereo unspecified)
EC50 [13]: > 100 µM (inactive)

Compound: COc1ccc2c(Cl)c(-c3nnc4n3CCCCC4)sc2c1
IC50 [5]: > 99 µM (inactive)
IC50 [6]: > 99 µM (inactive)
EC50 [15]: 1.88 µM (active)

Further lines, results first:

IC50 [1]: > 20 µM (inactive)
IC50 [2]: > 20 µM (inactive)
Compound: O=C(C1CCCCN1Cc1c2ccccc2cc2ccccc12)N1CCN(c2ccc([N+](=O)[O-])cc2)CC1 (stereo unspecified)

IC50 [3]: 1.5 µM (active)
IC50 [4]: 3.67 µM (active)
Compound: Cc1cc(C)c(NC(=O)c2ccc[n+](Cc3ccc([N+](=O)[O-])cc3)c2)c(C)c1

IC50 [7]: 3.98 µM (active)
Compound: CC(OC(=O)c1ccccc1NCCO)C(=O)Nc1ccnn1C(C)C (stereo unspecified)

AC50 [14]: 19.5 µM (active)
Compound: Cc1cccn2c(CN(C)C3CCCc4ccccc43)c(C(=O)N3CCOCC3)nc12 (stereo unspecified)

IC50 [1]: > 20 µM (inactive)
IC50 [2]: 9.69 µM (active)
Compound: COc1cccc(Oc2c(Cl)cnn(C3c4ccccc4-c4ccccc43)c2=O)c1
